Measurements from publication PMC9931176, “Discovery of Diverse Natural Products as Inhibitors of SARS-CoV-2 M^pro Protease through Virtual Screening” (Journal of Chemical Information and Modeling, 2021).
“And” between values parts separate entries of the source, which are not always exact repeats. Equal entries are not always repeated. Where two headings read alike, the source gives them in different places.

Target: recombinant SARS-CoV-2 Mpro (Severe acute respiratory syndrome coronavirus 2, UniProt P0DTD1)
Assay: SARS-CoV-2 Mpro inhibition assay (FRET-based proteolytic activity assay)
Type: biochemical
Conditions: for Ki: substrate concentration-independent inhibition constant; for inhibitory activity in the in vitro test: at concentrations below 125 μM
[1] = Ki, 0.2 μM enzyme, 20 μM substrate, compound 125 to 0 μM, 2.5% DMSO
[2] = 0.2 μM enzyme, 20 μM substrate, compound 125 to 0 μM, 2.5% DMSO, read-out: IC50
[3] = 0.2 μM enzyme, 20 μM substrate, compound 125 to 0 μM, 2.5% DMSO, read-out: Ki

Molecule | IC50 [µM] | Ki [1] | inhibitory activity in the in vitro test | IC50 [2] [µM] | Ki [3] [µM]
O=C1c2c(O)cccc2C([C@@H]2O[C@H](CO)[C@@H](O)[C@H](O)[C@H]2O)c2cc(CO)cc(O)c21 (some centres unmarked) [aloin] | 96 | 82 µM and 34 µM | – | – | –
O=c1cc(-c2ccc(O)c(-c3c(O)cc(O)c4c(=O)cc(-c5ccc(O)cc5)oc34)c2)oc2cc(O)cc(O)c12 [amentoflavone] | 28 | 10 µM | – | – | –
O=C(O[C@@H]1O[C@@H]2COC(=O)c3cc(O)c(O)c(O)c3-c3c(cc(O)c(O)c3O)C(=O)O[C@H]([C@H]1O)[C@@H]2O)c1cc(O)c(O)c(O)c1 [corilagin] | > 125 | > 125 µM | – | – | –
COc1ccc(-c2cc(=O)c3c(O)cc(O[C@@H]4O[C@H](CO[C@@H]5O[C@@H](C)[C@H](O)[C@@H](O)[C@H]5O)[C@@H](O)[C@H](O)[C@H]4O)cc3o2)cc1 [linarin] | > 125 | > 125 µM | lack of activity | – | –
O=c1cc(-c2ccc(O)c(O)c2)oc2cc(O[C@@H]3O[C@H](CO)[C@@H](O)[C@H](O)[C@H]3O)cc(O)c12 [luteoloside] | > 125 | > 125 µM | – | – | –
C[C@@H]1O[C@@H](OC[C@H]2O[C@@H](Oc3cc(O)c4c(c3)O[C@H](c3ccc(O)cc3)CC4=O)[C@H](O)[C@@H](O)[C@@H]2O)[C@H](O)[C@H](O)[C@H]1O [narirutin] | > 125 | > 125 µM | – | – | –
C[C@@H]1O[C@@H](O[C@H]2[C@H](Oc3cc(O)c4c(=O)cc(-c5ccc(O)cc5)oc4c3)O[C@H](CO)[C@@H](O)[C@@H]2O)[C@H](O)[C@H](O)[C@H]1O [rhoifolin] | – | – | – | 230 | 82
CC1OC(OC2C(c3c(O)cc(O)c4c(=O)cc(-c5ccc(O)cc5)oc34)OC(CO)C(O)C2O)C(O)C(O)C1O (centres unmarked) [vitexin-2-O-rhamnoside, vitexin-2-O-rhaMnoside] | 65 | 23 µM | – | – | –
CC1CCC2(C(=O)OC3OC(CO)C(O)C(O)C3O)CCC3(C)C(=CCC4C5(C)CCC(OC6OCC(O)C(O)C6O)C(C)(C)C5CCC43C)C2C1(C)O (centres unmarked) [ziyu-glycoside I] | > 125 | > 125 µM | nonactive | – | –
proanthocyanidins | – | – | nonactive | > 125 | > 125
